For one compound, GI50, EC50 and inhibition results are on record in ChEMBL document CHEMBL3400114, “The design, synthesis and biological evaluation of conformationally restricted 4-substituted-2,6-dimethylfuro[2,3-d]pyrimidines as multi-targeted receptor tyrosine kinase and microtubule inhibitors as potential antitumor agents” (Bioorg Med Chem, 2015).

A short description of assay [1]: Growth inhibition of human HCT116 cells after 48 hrs by sulforhodamine B assay. Type of assay: functional. The following applies: HCT-116, 48 h. (The SRB assay estimates cell density from bound dye.)
A short description of assay [2]: Growth inhibition of human OVCAR4 cells after 48 hrs by sulforhodamine B assay. Type of assay: functional. The following applies: OVCAR-4, 48 h.
Assay [3] is described as follows: Growth inhibition of human HCC2998 cells after 48 hrs by sulforhodamine B assay. Type of assay: functional. The following applies: HCC 2998, 48 h.
A short description of assay [4]: Induction of microtubule depolymerization in rat A10 cells after 18 hrs by indirect immunofluorescence assay. It counts as cell-based.
The subject of assay [5] is DU-145. Put plainly: Growth inhibition of human DU145 cells after 48 hrs by sulforhodamine B assay. It counts as functional. The conditions noted are these: DU-145, 48 h.
A short description of assay [6]: Growth inhibition of human UO31 cells after 48 hrs by sulforhodamine B assay. Type of assay: functional. The following applies: UO-31, 48 h.
Assay [7] deals with MDA-MB-231. Put plainly: Growth inhibition of human MDA-MB-231 cells after 48 hrs by sulforhodamine B assay. The conditions noted are these: MDA-MB-231, 48 h. Type of assay: functional.
Assay [8] is described as follows: Growth inhibition of human COLO205 cells after 48 hrs by sulforhodamine B assay. It counts as functional. The conditions noted are these: COLO 205, 48 h.
The test system of assay [9] is K562. Put plainly: Growth inhibition of human K562 cells after 48 hrs by sulforhodamine B assay. The following applies: K562, 48 h. Type of assay: functional.
The nature of assay [10]: Growth inhibition of human UACC62 cells after 48 hrs by sulforhodamine B assay. Type of assay: functional. The conditions noted are these: UACC-62, 48 h.
The subject of assay [11] is NCI-H322M. Briefly: Growth inhibition of human NCI-H322M cells after 48 hrs by sulforhodamine B assay. Type of assay: functional.
Assay [12] in a line: Growth inhibition of human LOXIMVI cells after 48 hrs by sulforhodamine B assay. The conditions noted are these: LOX IMVI. Type of assay: functional.
Assay [13] deals with IGROV-1. Briefly: Growth inhibition of human IGROV1 cells after 48 hrs by sulforhodamine B assay. The conditions noted are these: IGROV-1, 48 h. Type of assay: functional.
Assay [14] concerns Malme-3M. Put plainly: Growth inhibition of human MALME-3M cells after 48 hrs by sulforhodamine B assay. It counts as functional.
The target of assay [15] is Tubulin (Bos taurus) (UniProt Q6B856+Q862L2+Q862F3). Briefly: Displacement of [3H]colchicine from bovine brain tubulin assembly at 5 uM. (In general: Displacement assays read how much labelled ligand stays bound in the presence of the test substance.)
Assay [16] relates to KM12. Briefly: Growth inhibition of human KM12 cells after 48 hrs by sulforhodamine B assay. Type of assay: functional. The conditions noted are these: KM12, 48 h.

As a reminder, the GI50 is the concentration at which growth is held to half of that of the control. The term EC50 denotes the concentration needed to bring the measured effect to its halfway point. A word on the inhibition: it is the drop in the measured response relative to a control, in per cent. High values mean strong suppression, low ones little suppression. For the compound `COc1ccc2c(c1)CCCN2c1nc(C)nc2oc(C)cc12`, the GI50 is under 10 nM in assay [1]; 51 nM in assay [2]; 12 nM in assay [3]; under 10 nM in assay [5]; under 10 nM in [6]; 11.4 nM in assay [7]. For the same compound, the GI50 in assay [8], in assay [9], in assay [10], in assay [11], in assay [12] and in [13] was under 10 nM each time. Besides, the GI50 in assay [14] and in assay [16] was under 10 nM throughout. Moreover, a half-maximal response in assay [4] (EC50) required 21 nM. Moreover, the inhibition in assay [15] was found to be 96%.
